Measured values: patent publication US20210387949A1, “NEW SELECTIVE MODULATORS OF INSECT NICOTINIC ACETYLCHOLINE RECEPTORS” (UNIVERSITE DE NANTES, priority 2018, published 2021)
pEC50: −log10 of the molar value. Where two headings read alike, the source gives them in different places.

Legend:
[1] = tested on: cercal nerve giant interneuron synapses within the cockroach sixth abdominal ganglion (A6); assay: Mannitol-gap recordings, neurotoxic effect on insect cholinergic synaptic transmission; format: cell-based; conditions: for pEC50: read-out: EC50 of depolarization; for Depolarization of the sixth abdominal ganglion: in words; for Reversal of synaptic depolarization after wash-out: effect also observed 2 h after application
Protocol: Neurotoxic effect was studied using mannitol-gap recordings. Experiments were performed on the cercal nerve giant interneuron synapses located within the cockroach sixth abdominal ganglion (A6) using the mannitol-gap method pioneered by Callec (Callec, J. J.; Sattelle, D. B., A simple technique for monitoring the synaptic actions of pharmacological agents. J Exp Biol 1973, 59, (3), 725-38; and Callec, J. J.; Sattelle, D. B.; Hue, B.; Pelhate, M., Central synaptic actions of pharmacological agents in insects: oil-gap and mannitol-gap studies. In Neurotox 79, Sherwood, M., Ed. Plenum Press: New York, 1980; pp 93-100).
Electrical events were recorded using external electrodes. A non-electrolyte medium (mannitol) was interposed between the recording sites (Callec, J. J.; Sattelle, D. B.; Hue, B.; Pelhate, M., Central synaptic actions of pharmacological agents in insects: oil-gap and mannitol-gap studies. In Neurotox 79, Sherwood, M., Ed. Plenum Press: New York, 1980; pp 93-100). The main advantages of this method were to preserve the recordings of the unitary or evoked excitatory postsynaptic potentials (EPSP) and the postsynaptic polarization. Consequently, monitoring the variations of EPSP amplitude and/or polarization induced by drug application enables dose-response curves to be recorded. Moreover, this set-up allows long-term experiments to be performed and test solutions can be readily applied without any of the technical problems associated with intracellular recording.
A6 was carefully desheathed to facilitate penetration of bath-applied drugs. The recording electrodes were connected to the input of high-impedance amplifier, whose outputs were passed to a numeric oscilloscope (Hameg, Germany) and a chart recorder (Kipp and Zonen, B D 111, Holland). Variation of postsynaptic polarization was monitored on a chart recorder and the cEPSPs were evoked by electrical stimulations of the ipsilateral cercal nerve XI using a dual pulse stimulator (Campden 915, USA). TMX was applied during 3 min in the same conditions as previously published (Buckingham, S.; Lapied, B.; Corronc, H.; Sattelle, F., Imidacloprid actions on insect neuronal acetylcholine receptors. J Exp Biol 1997, 200, (Pt 21), 2685-92; and Thany, S. H., Agonist actions of clothianidin on synaptic and extrasynaptic nicotinic acetylcholine receptors expressed on cockroach sixth abdominal ganglion. Neurotoxicology 2009, 30, (6), 1045-52), with a micropump fast perfusion (Harvard Apparatus) that produced a constant solution exchange (500 μL/min). All muscarinic and nicotinic antagonists were bath-applied for at least 20 min before a single application of TMX. Recordings were made at room temperature.
To compare the depolarizations, the peak amplitudes were normalized (V/Vmax). The dose-response curve was derived from the fitted curve following the equation:
y=Vmin+(Vmax−Vmin)/(1+10^(log EC^50^−X)H)
where Y is the normalized response, Vmax and Vmin are the maximum and minimum responses, H is the Hill coefficient, EC50 is the concentration giving half the maximum response and X is the logarithm of the compound concentration.

honeybee Apis mellifera = assay: Oral toxicity against honeybee; format: in vivo; conditions: for % mortality 24 h / % mortality 48 h: oral, DMSO 1%; for Toxicity for bees: higher concentrations (150 ng/bee), in words
Protocol: Honeybees were kept from hives located at the University of Orleans and transferred to the laboratory incubators for experiments (30±1.5° C.; 12/12 h 0/N). They were placed in six different cages, 20 bees per cage, with 40% sucrose solution (control group) or tested compounds.
All tests were carried out using adult worker honeybees, Apis mellifera L (Hymenoptera: Apidae) taken from two queen colonies. These colonies were disease-free and had received no chemical treatments (Eg. Varroacide). For oral toxicity tests, adult worker bees were collected from the hive combs (avoiding the brood nest area) or from the flight board.
Stock solutions of compounds were dissolved in dimethyl sulfoxide (DMSO) to obtain 500 ng/μL and stocked at −20° C. These samples were then diluted in sucrose solution (40%; w/v), for final experiments. […] Solutions of the test doses were stirred immediately prior to use and were visually homogenous when proposed to bees. Bee allocation to the treatment groups was made impartially. Before being used for the test, bees were subjected to a starvation period of between 2 h and 3 h under test conditions (For review, see Nauen, R.; Ebbinghaus-Kintscher, U.; Schmuck, R., Toxicity and nicotinic acetylcholine receptor interaction of imidacloprid and its metabolites in Apis mellifera (Hymenoptera: Apidae). Pest Management Science 2001, 57, (7), 577-586).
Six batches of bees (20 bees per batch) were subjected to different doses of the test compound (nominal doses between 50 ng/bee and […]). Doses were determined according to the lethal dose of neonicotinoid insecticides inducing bee toxic effects (Table 3). Controls received sucrose solution containing 0.25% DMSO. The glass test feeders containing any unconsumed portions of the doses were removed and after each experiment a fresh sucrose solution was supplied in feeders within the cages. For each concentration three replicates were made (180 bees/concentration). Mortality was measured at 24 h and 48 h after treatment.

[2] = tested on: Honey bees Apis mellifera; conditions: literature values (Iwasa 2004; Stark 1995); cited from earlier work
[3] = bath application, dose-response curve of sixth abdominal ganglion depolarization

COc1ccc(S(=O)(=O)N2CCCC2C#N)cn1 (centres unmarked) [Compound 3iii, 1-((6-methoxypyridin-3-yl)sulfonyl)pyrrolidine-2-carbonitrile]
pEC50 [1, 3]: 5.37 | Depolarization of the sixth abdominal ganglion ([1]; bath application): strong depolarization | Reversal of synaptic depolarization after wash-out [1]: not reversed after wash-out | % mortality 24 h (honeybee Apis mellifera; 50 ng/bee): 3.3% | % mortality 48 h (honeybee Apis mellifera; 50 ng/bee): 5.0% | % mortality 24 h (honeybee Apis mellifera; 150 ng/bee): 2.5% | % mortality 48 h (honeybee Apis mellifera; 150 ng/bee): 3.7%

Cc1ccc(S(=O)(=O)N2CCC[C@H]2C#N)cn1 [Compound 3iv, (S)-1-((6-methylpyridin-3-yl)sulfonyl)pyrrolidine-2-carbonitrile]
Depolarization of the sixth abdominal ganglion ([1]; bath application): strong depolarization | Reversal of synaptic depolarization after wash-out [1]: not reversed after wash-out | % mortality 24 h (honeybee Apis mellifera; 50 ng/bee): 0% | % mortality 48 h (honeybee Apis mellifera; 50 ng/bee): 0% | % mortality 24 h (honeybee Apis mellifera; 150 ng/bee): 0% | % mortality 48 h (honeybee Apis mellifera; 150 ng/bee): 0% | Toxicity for bees (honeybee Apis mellifera): not toxic for bees

CCN(Cc1ccc(Cl)nc1)/C(=C/[N+](=O)[O-])NC [Nitenpyram]
LD50 [2]: 138 ng/bee

O=[N+]([O-])NC1=NCCN1Cc1ccc(Cl)nc1 [Imidacloprid, reference compound]
pEC50 [1]: ~4.82

Cc1ccc(S(=O)(=O)N2CCCC2C#N)cc1 (centres unmarked) [Compound 3ab, 1-tosylpyrrolidine-2-carbonitrile]
melting point: 102 °C

N#C[C@@H]1CCCN1S(=O)(=O)c1ccc(Cl)cc1 [Compound 3bc, (S)-1-((4-chlorophenyl)sulfonyl) pyrrolidine-2-carbonitrile]
melting point: 115 °C

N#CC1CCCN1S(=O)(=O)c1ccc(Cl)cc1 (centres unmarked) [Compound 3bb, 1-((4-chlorophenyl)sulfonyl) pyrrolidine-2-carbonitrile]
melting point: 115 °C

CN/C(=N\[N+](=O)[O-])NCc1cnc(Cl)s1 [Clothianidin]
LD50 [2]: 21.8 ng/bee (Iwasa 2004)

Cc1ccc(S(=O)(=O)N2CCCC2)cc1 [Compound 3aa, 1-tosylpyrrolidine]
melting point: 129 °C

COc1ccc(S(=O)(=O)N2CCCC2)cn1 [Compound 3ii, 2-methoxy-5-(pyrrolidin-1-ylsulfonyl)pyridine]
pEC50 [1, 3]: 5.10 | Depolarization of the sixth abdominal ganglion ([1]; bath application): strong depolarization | Reversal of synaptic depolarization after wash-out [1]: not reversed after wash-out | % mortality 24 h (honeybee Apis mellifera; 50 ng/bee): 0% | % mortality 48 h (honeybee Apis mellifera; 50 ng/bee): 3.3% | % mortality 24 h (honeybee Apis mellifera; 150 ng/bee): 0% | % mortality 48 h (honeybee Apis mellifera; 150 ng/bee): 1.2% | Toxicity for bees (honeybee Apis mellifera): not toxic for bees

O=S(=O)(c1ccc(Cl)nc1)N1CCCC1 [Compound 3da, 2-chloro-5-(pyrrolidin-1-ylsulfonyl)pyridine]
melting point: 134 °C

O=S(=O)(c1ccc(Cl)cc1)N1CCCC1 [Compound 3ba, 1-((4-chlorophenyl)sulfonyl) pyrrolidine]
melting point: 106 °C

CN1COCN(Cc2cnc(Cl)s2)/C1=N\[N+](=O)[O-] [Thiamethoxam]
LD50 [2]: 29.9 ng/bee (Iwasa 2004)

Cc1ccc(S(=O)(=O)N2CCC[C@H]2C#N)cc1 [Compound 3ac, (S)-1-tosylpyrrolidine-2-carbonitrile]
melting point: 102 °C

CN/C(=N/CC1CCOC1)N[N+](=O)[O-] (centres unmarked) [Dinotefuran]
LD50 [2]: 75 ng/bee (Iwasa 2004)

N#C[C@@H]1CCCN1S(=O)(=O)c1ccc(Cl)nc1 [Compound 3i, (S)-1-((6-chloropyridin-3-yl)sulfonyl)pyrrolidine-2-carbonitrile]
pEC50 [1, 3]: 4.72 | Depolarization of the sixth abdominal ganglion ([1]; bath application): strong depolarization | Reversal of synaptic depolarization after wash-out [1]: not reversed after wash-out | % mortality 24 h (honeybee Apis mellifera; 50 ng/bee): 3.3% | % mortality 48 h (honeybee Apis mellifera; 50 ng/bee): 10.0% | % mortality 24 h (honeybee Apis mellifera; 150 ng/bee): 0% | % mortality 48 h (honeybee Apis mellifera; 150 ng/bee): 0%
